Data reported in ChEMBL document CHEMBL1127801, “3-(2-(3-Pyridinyl)thiazolidin-4-oyl)indoles, a novel series of platelet activating factor antagonists” (J Med Chem, 1994).

Experiments:
Mus musculus = assay: In vivo antagonist activity against PAF-Induced paw edema in the mouse; format: functional
Rattus norvegicus = assay: In vivo antagonist activity for PAF-Induced cutaneous vascular permeability in the rat; format: functional
[1] = target: Platelet-activating factor receptor (Oryctolagus cuniculus); assay: Functional inhibition of PAF-induced platelet degranulation

**Q.** With `CC(C)(C)OC(=O)n1cc(C(=O)[C@@H]2CSC(c3cccnc3)N2)c2ccc(OCc3ccccc3)cc21` (some centres undefined) as the molecule, how does the ED50 (Mus musculus) read?
**A.** 1.3 mg/kg

**Q.** What about the ED50 (Rattus norvegicus) of the same molecule?
**A.** 0.429 mg/kg

**Q.** What about the Kb [1] of the same molecule?
**A.** 1.19 nM

**Q.** How did the Kb [1] turn out when `O=C([C@@H]1CSC(c2cccnc2)N1)n1ccc2ccc(OCc3ccccc3)cc21` (some centres undefined) was run?
**A.** 12 nM

**Q.** For `CC(C)(C)C(=O)n1cc(C(=O)[C@@H]2CSC(c3cccnc3)N2)c2ccccc21` (some centres undefined), which ED50 (Mus musculus) is on record?
**A.** 15.8 mg/kg

**Q.** With `O=C(c1cn(C(=O)N2CCOCC2)c2ccccc12)[C@@H]1CSC(c2cccnc2)N1` (some centres undefined) as the molecule, how does the ED50 (Mus musculus) read?
**A.** 2.63 mg/kg

**Q.** With `O=C(c1ccccc1)c1cccc(NC(=O)[C@@H]2CSC(c3cccnc3)N2)c1` (some centres undefined) as the molecule, how does the ED50 (Mus musculus) read?
**A.** 1.73 mg/kg

**Q.** What about the ED50 (Rattus norvegicus) of the same molecule?
**A.** 12.9 mg/kg

**Q.** And the Kb [1]?
**A.** 4.14 nM

**Q.** `CN(C)C(=O)n1cc(C(=O)[C@@H]2CSC(c3cccnc3)N2)c2ccc(C#Cc3ccccc3)cc21` (some centres undefined) was tested. Which ED50 (Rattus norvegicus) did it give?
**A.** 0.885 mg/kg

**Q.** For `CNC(=O)n1cc(C(=O)[C@@H]2CSC(c3cccnc3)N2)c2ccccc21.O=C(O)C(=O)O.O=C(O)C(=O)O` (some centres undefined), which ED50 (Rattus norvegicus) is on record?
**A.** 1.68 mg/kg

**Q.** Which results are given for `CCCOc1c(OC)cc([C@@H]2CC[C@@H](c3cc(OC)c(OC)c(OC)c3)O2)cc1S(=O)(=O)CCO`?
**A.** ED50 (Mus musculus): 11.5 mg/kg; ED50 (Rattus norvegicus): 1.89 mg/kg

**Q.** How did the ED50 (Mus musculus) turn out when `CCN(CC)C(=O)n1cc(C(=O)[C@@H]2CSC(c3cccnc3)N2)c2ccccc21` (some centres undefined) was run?
**A.** 0.52 mg/kg

**Q.** What about the ED50 (Rattus norvegicus) of the same molecule?
**A.** 0.616 mg/kg

**Q.** Which Kb [1] does the source give for `O=C(c1cn(Cc2ccccc2)c2ccccc12)[C@@H]1CSC(c2cccnc2)N1` (some centres undefined) here?
**A.** 22.1 nM

**Q.** How did the Kb [1] turn out when `CCS(=O)(=O)n1cc(C(=O)[C@@H]2CSC(c3cccnc3)N2)c2ccccc21` (some centres undefined) was run?
**A.** 1.59 nM

**Q.** For `CCS(=O)(=O)n1cc(C(=O)[C@@H]2CSC(c3cccnc3)N2)c2ccc(OCc3ccccc3)cc21` (some centres undefined), which ED50 (Rattus norvegicus) is on record?
**A.** 0.862 mg/kg

**Q.** For `O=C(c1c[nH]c2cc(F)ccc12)[C@@H]1CSC(c2cccnc2)N1` (some centres undefined), which ED50 (Rattus norvegicus) is on record?
**A.** 2.69 mg/kg

**Q.** Which results are given for `Cc1nnc2n1-c1sc3c(c1C(c1ccccc1Cl)=NC2)CC(C(=O)N1CCOCC1)C3` (centres undefined) [BEPAFANT]?
**A.** ED50 (Mus musculus): 0.459 mg/kg; ED50 (Rattus norvegicus): 0.423 mg/kg

**Q.** Which ED50 (Rattus norvegicus) does the source give for `CN(C)C(=O)n1cc(C(=O)[C@@H]2CSC(c3cccnc3)N2)c2ccc(F)cc21` (some centres undefined) here?
**A.** 0.945 mg/kg

**Q.** How did the ED50 (Rattus norvegicus) turn out when `CN(C)C(=O)n1cc(C(=O)[C@@H]2CSC(c3cccnc3)N2)c2ccc(-c3ccc(F)cc3)cc21` (some centres undefined) was run?
**A.** 0.76 mg/kg

**Q.** Which ED50 (Mus musculus) does the source give for `Cc1nnc2n1C1=C(C(c3ccccc3Cl)=NC2C)C2CCN(C(=O)C3CC3)CC2S1` (centres undefined) here?
**A.** 1.44 mg/kg

**Q.** What about the ED50 (Rattus norvegicus) of the same molecule?
**A.** 0.15 mg/kg

**Q.** Which ED50 (Mus musculus) does the source give for `O=C(c1ccccc1)c1cccc(NC(=O)c2ccn3c2CSC3c2cccnc2)c1` (centres undefined) here?
**A.** 4.07 mg/kg

**Q.** And the ED50 (Rattus norvegicus)?
**A.** 2.27 mg/kg

**Q.** Which results are given for `O=C(O)C(=O)O.O=C(c1c[nH]c2ccccc12)[C@@H]1CSC(c2cccnc2)N1` (some centres undefined)?
**A.** ED50 (Mus musculus): 5.32 mg/kg; ED50 (Rattus norvegicus): 3.65 mg/kg

**Q.** What does the source list for `O=C(c1c[nH]c2cc(-c3ccccc3)ccc12)[C@@H]1CSC(c2cccnc2)N1` (some centres undefined)?
**A.** ED50 (Mus musculus): 5.39 mg/kg; ED50 (Rattus norvegicus): 2.3 mg/kg

**Q.** Which ED50 (Mus musculus) does the source give for `O=C(c1c[nH]c2cc(OCc3ccccc3)ccc12)[C@@H]1CSC(c2cccnc2)N1` (some centres undefined) here?
**A.** 1.47 mg/kg

**Q.** And the ED50 (Rattus norvegicus)?
**A.** 0.526 mg/kg

**Q.** What about the Kb [1] of the same molecule?
**A.** 0.0929 nM

**Q.** For `CCOC(=O)C1=C(c2ccc(-n3c(C)nc4cnccc43)cc2)NC(C)=C(C(=O)Nc2ccccn2)C1c1ccccc1Cl` (centres undefined), which ED50 (Rattus norvegicus) is on record?
**A.** 0.232 mg/kg

**Q.** How did the ED50 (Rattus norvegicus) turn out when `Cc1ccc2c(c1)c(C(=O)[C@@H]1CSC(c3cccnc3)N1)c(C)n2C(=O)OC(C)(C)C.O=C(O)C(=O)O` (some centres undefined) was run?
**A.** 9.51 mg/kg

**Q.** For `Cl.Cl.O=C(C1CSC(c2cccnc2)N1)n1ccc2c(Cl)cccc21` (centres undefined), which ED50 (Rattus norvegicus) is on record?
**A.** 15 mg/kg

**Q.** `O=C(O)C(=O)O.O=C(c1cn(C(=O)OCc2ccccc2)c2ccccc12)[C@@H]1CSC(c2cccnc2)N1` (some centres undefined) was tested. Which ED50 (Mus musculus) did it give?
**A.** 1.79 mg/kg

**Q.** Which results are given for `Cc1nnc2n1-c1sc(CCC(=O)N3CCOCC3)cc1C(c1ccccc1Cl)=NC2` [APAFANT]?
**A.** ED50 (Mus musculus): 2.2 mg/kg; ED50 (Rattus norvegicus): 22.3 mg/kg

**Q.** Which ED50 (Rattus norvegicus) does the source give for `O=C(c1cn(C(=O)c2ccc(Cl)cc2)c2ccccc12)[C@@H]1CSC(c2cccnc2)N1` (some centres undefined) here?
**A.** 3.19 mg/kg

**Q.** `CC(C)(C)OC(=O)n1cc(C(=O)[C@@H]2CSC(c3cccnc3)N2)c2ccccc21` (some centres undefined) was tested. Which ED50 (Mus musculus) did it give?
**A.** 0.372 mg/kg

**Q.** And the ED50 (Rattus norvegicus)?
**A.** 4.96 mg/kg

**Q.** And the Kb [1]?
**A.** 0.111 nM

**Q.** `O=C(c1c[nH]c2cc(Br)ccc12)[C@@H]1CSC(c2cccnc2)N1` (some centres undefined) was tested. Which ED50 (Rattus norvegicus) did it give?
**A.** 1.07 mg/kg

**Q.** `CN(C)C(=O)n1cc(C(=O)[C@@H]2CSC(c3cccnc3)N2)c2ccc(OCc3ccccc3)cc21.O=C(O)C(=O)O` (some centres undefined) was tested. Which ED50 (Mus musculus) did it give?
**A.** 0.079 mg/kg

**Q.** What about the ED50 (Rattus norvegicus) of the same molecule?
**A.** 0.53 mg/kg

**Q.** How did the ED50 (Mus musculus) turn out when `O=C(c1cn(C(=O)N2CCOCC2)c2cc(OCc3ccccc3)ccc12)[C@@H]1CSC(c2cccnc2)N1` (some centres undefined) was run?
**A.** 3.7 mg/kg

**Q.** What about the ED50 (Rattus norvegicus) of the same molecule?
**A.** 0.762 mg/kg

**Q.** `CC(C)(C)NC(=O)n1cc(C(=O)[C@@H]2CSC(c3cccnc3)N2)c2ccccc21` (some centres undefined) was tested. Which ED50 (Rattus norvegicus) did it give?
**A.** 6.28 mg/kg

**Q.** `CN(C)C(=O)n1cc(C(=O)[C@@H]2CSC(c3cccnc3)N2)c2ccc(Cl)cc21` (some centres undefined) was tested. Which ED50 (Rattus norvegicus) did it give?
**A.** 1.6 mg/kg

**Q.** For `O=C(C1CSC(c2cccnc2)N1)n1ccc2cc(OCc3ccccc3)ccc21` (centres undefined), which Kb [1] is on record?
**A.** 1.95 nM

**Q.** For `CN(C)C(=O)n1cc(C(=O)[C@@H]2CSC(c3cccnc3)N2)c2ccc(OCc3ccc(F)cc3)cc21` (some centres undefined), which ED50 (Rattus norvegicus) is on record?
**A.** 0.355 mg/kg

**Q.** For `CN(C)C(=O)n1cc(C(=O)[C@@H]2CSC(c3cccnc3)N2)c2ccccc21` (some centres undefined), which ED50 (Mus musculus) is on record?
**A.** 0.979 mg/kg

**Q.** What about the ED50 (Rattus norvegicus) of the same molecule?
**A.** 1.3 mg/kg

**Q.** And the Kb [1]?
**A.** 0.291 nM

**Q.** How did the Kb [1] turn out when `CN(C(=O)n1cc(C(=O)[C@@H]2CSC(c3cccnc3)N2)c2ccccc21)c1ccccc1` (some centres undefined) was run?
**A.** 1.93 nM

**Q.** How did the Kb [1] turn out when `Cc1[nH]c2ccccc2c1C(=O)[C@@H]1CSC(c2cccnc2)N1` (some centres undefined) was run?
**A.** 1.99 nM

**Q.** How did the ED50 (Mus musculus) turn out when `Cc1c(C(=O)[C@@H]2CSC(c3cccnc3)N2)c2ccccc2n1C(=O)OC(C)(C)C.O=C(O)C(=O)O` (some centres undefined) was run?
**A.** 0.873 mg/kg

**Q.** Which ED50 (Rattus norvegicus) does the source give for `CN(C)C(=O)n1cc(C(=O)[C@@H]2CSC(c3cccnc3)N2)c2ccc(C(=O)c3ccccc3)cc21` (some centres undefined) here?
**A.** 0.521 mg/kg

**Q.** With `COC(=O)n1cc(C(=O)[C@@H]2CSC(c3cccnc3)N2)c2ccccc21` (some centres undefined) as the molecule, how does the ED50 (Mus musculus) read?
**A.** 1.97 mg/kg

**Q.** And the ED50 (Rattus norvegicus)?
**A.** 5.19 mg/kg

**Q.** `O=C(c1c[nH]c2cc(OCc3ccc(F)cc3)ccc12)[C@@H]1CSC(c2cccnc2)N1` (some centres undefined) was tested. Which ED50 (Rattus norvegicus) did it give?
**A.** 0.273 mg/kg

**Q.** How did the ED50 (Rattus norvegicus) turn out when `CN(C)C(=O)n1cc(C(=O)[C@@H]2CSC(c3cccnc3)N2)c2ccc(-c3cccnc3)cc21` (some centres undefined) was run?
**A.** 4.48 mg/kg

**Q.** How did the ED50 (Mus musculus) turn out when `COc1ccc2c(C(=O)[C@@H]3CSC(c4cccnc4)N3)c[nH]c2c1` (some centres undefined) was run?
**A.** 3.7 mg/kg

**Q.** With `O=C(O)C(F)(F)F.O=C(c1c[nH]c2c(OCc3ccccc3)cccc12)[C@@H]1CSC(c2cccnc2)N1` (some centres undefined) as the molecule, how does the ED50 (Mus musculus) read?
**A.** 6.98 mg/kg

**Q.** And the ED50 (Rattus norvegicus)?
**A.** 1.41 mg/kg

**Q.** And the Kb [1]?
**A.** 0.571 nM

**Q.** What does the source list for `COc1cc(C(=O)c2cccc(NC(=O)[C@@H]3CSC(c4cccnc4)N3)c2)cc(OC)c1OC` (some centres undefined)?
**A.** ED50 (Mus musculus): 0.476 mg/kg; ED50 (Rattus norvegicus): 2.06 mg/kg; Kb [1]: 0.415 nM

**Q.** How did the ED50 (Rattus norvegicus) turn out when `COc1ccc2c(C(=O)[C@@H]3CSC(c4cccnc4)N3)cn(C(=O)OC(C)(C)C)c2c1.O=C(O)C(=O)O` (some centres undefined) was run?
**A.** 1.9 mg/kg

**Q.** Which ED50 (Rattus norvegicus) does the source give for `CN(C)C(=O)Cn1cc(C(=O)[C@@H]2CSC(c3cccnc3)N2)c2ccccc21` (some centres undefined) here?
**A.** 0.384 mg/kg

**Q.** How did the ED50 (Mus musculus) turn out when `CN(C)C(=O)n1cc(C(=O)[C@@H]2CSC(c3cccnc3)N2)c2cccc(OCc3ccccc3)c21` (some centres undefined) was run?
**A.** 0.091 mg/kg

**Q.** With `CN(C)C(=O)n1cc(C(=O)[C@@H]2CSC(c3cccnc3)N2)c2ccc(-c3ccccc3)cc21` (some centres undefined) as the molecule, how does the ED50 (Mus musculus) read?
**A.** 0.808 mg/kg

**Q.** And the ED50 (Rattus norvegicus)?
**A.** 1.12 mg/kg

**Q.** For `Cc1ccc2c(C(=O)[C@@H]3CSC(c4cccnc4)N3)cn(C(=O)OC(C)(C)C)c2c1` (some centres undefined), which ED50 (Mus musculus) is on record?
**A.** 1.19 mg/kg

**Q.** What about the ED50 (Rattus norvegicus) of the same molecule?
**A.** 5.22 mg/kg

**Q.** `CN(C)C(=O)n1cc(C(=O)[C@@H]2CSC(c3cccnc3)N2)c2ccc(Oc3ccc(F)cc3)cc21` (some centres undefined) was tested. Which ED50 (Rattus norvegicus) did it give?
**A.** 0.108 mg/kg
